How the values were obtained:
[1] = biological target: Muscarinic acetylcholine receptor; test: In vitro binding affinity at muscarinic binding site receptors in rat brain membrane using [3H]QNB as radioligand; type: cell membranes
[2] = biological target: T1, Glutamate receptor ionotropic, AMPA (Rattus norvegicus, UniProt P19490+P19491+P19492+P19493); test: In vitro binding affinity at quisqualate binding site of quisqualate/AMPA glutamate receptors in rat brain membrane using [3H]- ]AMPA as radioligand; type: cell membranes
D(2) dopamine receptor = D(2) dopamine receptor (Rattus norvegicus, UniProt P61169); test: In vitro binding affinity at Dopamine receptor D2 in rat striata using [3H]domperidone as radioligand
Adrenergic receptor beta [3] = biological target: T2, Adrenergic receptor beta (Rattus norvegicus, UniProt P18090+P10608+P26255); test: In vitro binding affinity at beta adrenergic receptor binding site receptors in rat brain membrane using [3H]dihydroalprenolol as radioligand; type: cell membranes
D(1A) dopamine receptor = D(1A) dopamine receptor (Rattus norvegicus, UniProt P18901); test: In vitro binding affinity at Dopamine receptor D1 using [3H]SCH-23390 as radioligand
[4] = biological target: Glutamate receptor ionotropic, kainate; test: In vitro binding affinity at Ionotropic glutamate receptor ionotropic kainate in rat brain membrane using [3H]kainate as radioligand; type: cell membranes
Adrenergic receptor beta [5] = biological target: T2, Adrenergic receptor beta; test: In vitro binding affinity at Beta adrenergic receptor in rat brain membrane using [3H]dihydroalprenolol as radioligand; type: cell membranes
[6] = biological target: Glutamate receptor ionotropic, kainate; test: In vitro binding affinity at Ionotropic glutamate receptor kainate in rat brain membrane using [3H]kainate as radioligand; type: cell membranes
[7] = biological target: Muscarinic acetylcholine receptor; test: In vitro binding affinity at Muscarinic acetylcholine receptor in rat brain membrane using [3H]QNB as radioligand; type: cell membranes
[8] = biological target: T1, Glutamate receptor ionotropic, AMPA; test: In vitro binding affinity at quisqualate binding site of quisqualate/AMPA glutamate receptors in rat brain membrane using [3H]AMPA as radioligand; type: cell membranes

Chain of D(1A) dopamine receptor (P18901 whole entry): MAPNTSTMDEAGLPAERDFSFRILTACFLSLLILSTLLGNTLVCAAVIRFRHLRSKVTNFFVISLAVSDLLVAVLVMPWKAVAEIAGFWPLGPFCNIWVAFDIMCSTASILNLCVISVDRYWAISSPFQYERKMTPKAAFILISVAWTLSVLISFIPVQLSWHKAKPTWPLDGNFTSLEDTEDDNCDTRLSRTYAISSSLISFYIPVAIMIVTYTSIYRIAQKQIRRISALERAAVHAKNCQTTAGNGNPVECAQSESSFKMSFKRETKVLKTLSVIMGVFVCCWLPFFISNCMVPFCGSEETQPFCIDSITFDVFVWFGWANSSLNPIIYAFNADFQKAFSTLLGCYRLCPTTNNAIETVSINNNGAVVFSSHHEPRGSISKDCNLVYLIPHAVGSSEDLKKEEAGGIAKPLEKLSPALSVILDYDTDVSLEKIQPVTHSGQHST
Chain of D(2) dopamine receptor (P61169 whole entry): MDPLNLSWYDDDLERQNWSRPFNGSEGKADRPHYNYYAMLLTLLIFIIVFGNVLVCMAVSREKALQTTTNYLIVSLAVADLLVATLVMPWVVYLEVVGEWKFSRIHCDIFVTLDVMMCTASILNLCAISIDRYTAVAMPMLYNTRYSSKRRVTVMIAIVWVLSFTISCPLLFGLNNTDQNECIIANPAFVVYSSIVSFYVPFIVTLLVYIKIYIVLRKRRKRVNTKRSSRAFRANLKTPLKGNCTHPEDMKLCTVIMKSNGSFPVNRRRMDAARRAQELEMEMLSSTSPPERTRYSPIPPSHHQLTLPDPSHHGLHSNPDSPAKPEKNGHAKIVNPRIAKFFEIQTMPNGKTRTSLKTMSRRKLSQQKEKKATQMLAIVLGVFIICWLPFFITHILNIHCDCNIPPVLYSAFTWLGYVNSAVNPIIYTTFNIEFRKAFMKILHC

Row | SMILES | IC50 [1] [µM] | IC50 [2] [µM] | IC50 (D(2) dopamine receptor) [µM] | IC50 (Adrenergic receptor beta [3]) [µM] | IC50 (D(1A) dopamine receptor) [µM] | IC50 [4] [µM] | IC50 (Adrenergic receptor beta [5]) [µM] | IC50 [6] [µM] | IC50 [7] [µM] | IC50 [8] [µM]
1 | CC(Cc1ccc(I)cc1)NCCCc1ccccc1 (centres undefined) | > 10 | > 10 | 3.8 | 5.57 | > 10 | > 10 | – | – | – | –
2 | c1ccc(CCCNC2CCc3ccccc3CC2)cc1 | – | > 10 | 5.8 | – | > 10 | – | > 10 | > 10 | 9.5 | –
3 | CC(Cc1ccc(Cl)c(Cl)c1)NCCCc1ccccc1 (centres undefined) | – | > 10 | 1.79 | – | > 10 | – | 1.24 | > 10 | 7.4 | –
4 | COc1ccc(CC(C)NCCCc2ccccc2)cc1 (centres undefined) | > 10 | – | 9.32 | 4.94 | > 10 | > 10 | – | – | – | > 10

Reference: ChEMBL document CHEMBL1125260, “Binding of substituted and conformationally restricted derivatives of N-(3-phenyl-n-propyl)-1-phenyl-2-aminopropane at sigma-receptors” (J Med Chem, 1991)
